{"source": "patent US20120094998A1", "about": "“Oligomer-Protein Tyrosine Kinase Inhibitor Conjugates” (Nektar Therapeutics, priority 2009, published 2012)", "key": {"[1]": {"test": "Caco-2 permeability (bi-directional; pH 7.4/pH 7.4)", "type": "in vitro ADME", "conditions": "human", "procedure": "Caco-2 cells are used as an in vitro model of the human intestinal epithelium and permit assessment of the intestinal permeability of potential drugs. Test compound is added to either the apical or basolateral side of a confluent monolayer of Caco-2 cells and permeability is measured by monitoring the appearance of the test compound on the opposite side of the membrane using LC-MS/MS. Apparent permeability (Papp) coefficients, efflux ratio for the test compound and recovery values were determined.\nTo measure the permeability of test compound in the apical to basolateral (A-B) and basolateral to apical (B-A) direction across Caco-2 cells.\nCaco-2 cells obtained from the ATCC are used between passage numbers 40-60. Cells are seeded on to Millipore Multiscreen Caco-2 plates at 1×10^5 cells/cm^2. They are cultured for 20 days in DMEM and media is changed every two or three days. On day 20 the permeability study is performed.\nOn day 20, the monolayers are prepared by rinsing both basolateral and apical surfaces twice with HBSS at 37° C. Cells are then incubated with HBSS in both apical and basolateral compartments for 40 min to stabilize physiological parameters. HBSS is then removed from the apical compartment and replaced with test compound dosing solutions. […] The fluorescent integrity marker lucifer yellow is also included in the dosing solution. Analytical standards are made from dosing solutions. The apical compartment inserts are then placed into ‘companion’ plates containing fresh HBSS. For basolateral to apical (B-A) permeability determination the experiment is initiated by replacing buffer in the inserts then placing them in companion plates containing dosing solutions. At 120 minutes the companion plate is removed and apical and basolateral samples diluted for analysis by LC-MS/MS. Test compound permeability was assessed in duplicate. On each plate, compounds of known permeability characteristics were run as controls.\nTest and control compounds were quantified by LC-MS/MS cassette analysis using a 5-point calibration with appropriate dilution of the samples. Cyprotex generic analytical conditions were used. The starting concentration (C0) and experimental recovery were calculated from both apical and basolateral compartment concentrations.\nThe integrity of the monolayers throughout the experiment was checked by monitoring lucifer yellow permeation using fluorimetric analysis. Lucifer yellow permeation is low if monolayers have not been damaged. […] If lucifer yellow Papp values are above QC limits in both replicate wells for a test compound, the compound was re-tested.\nData Analysis: The permeability coefficient for each compound (Papp) is calculated from the following equation: […]\nwherein dQ/dt is the rate of permeation of the drug across the cells, C0 is the donor compartment concentration at time zero and A is the area of the cell monolayer. C0 is obtained from analysis of donor and receiver compartments at the end of the incubation period. It is assumed that all of the test compound measured after 120 minutes incubation was initially present in the donor compartment at 0 minutes. An efflux ratio (ER) is derived as follows:\nTalinolol (a known P-gp substrate) is also included as a control compound to assess whether functional P-gp is present in the Caco-2 cell monolayer."}, "[2]": {"biological_target": "PDGFRβ (Homo sapiens, UniProt P09619)", "sequence (P09619 33-1106)": "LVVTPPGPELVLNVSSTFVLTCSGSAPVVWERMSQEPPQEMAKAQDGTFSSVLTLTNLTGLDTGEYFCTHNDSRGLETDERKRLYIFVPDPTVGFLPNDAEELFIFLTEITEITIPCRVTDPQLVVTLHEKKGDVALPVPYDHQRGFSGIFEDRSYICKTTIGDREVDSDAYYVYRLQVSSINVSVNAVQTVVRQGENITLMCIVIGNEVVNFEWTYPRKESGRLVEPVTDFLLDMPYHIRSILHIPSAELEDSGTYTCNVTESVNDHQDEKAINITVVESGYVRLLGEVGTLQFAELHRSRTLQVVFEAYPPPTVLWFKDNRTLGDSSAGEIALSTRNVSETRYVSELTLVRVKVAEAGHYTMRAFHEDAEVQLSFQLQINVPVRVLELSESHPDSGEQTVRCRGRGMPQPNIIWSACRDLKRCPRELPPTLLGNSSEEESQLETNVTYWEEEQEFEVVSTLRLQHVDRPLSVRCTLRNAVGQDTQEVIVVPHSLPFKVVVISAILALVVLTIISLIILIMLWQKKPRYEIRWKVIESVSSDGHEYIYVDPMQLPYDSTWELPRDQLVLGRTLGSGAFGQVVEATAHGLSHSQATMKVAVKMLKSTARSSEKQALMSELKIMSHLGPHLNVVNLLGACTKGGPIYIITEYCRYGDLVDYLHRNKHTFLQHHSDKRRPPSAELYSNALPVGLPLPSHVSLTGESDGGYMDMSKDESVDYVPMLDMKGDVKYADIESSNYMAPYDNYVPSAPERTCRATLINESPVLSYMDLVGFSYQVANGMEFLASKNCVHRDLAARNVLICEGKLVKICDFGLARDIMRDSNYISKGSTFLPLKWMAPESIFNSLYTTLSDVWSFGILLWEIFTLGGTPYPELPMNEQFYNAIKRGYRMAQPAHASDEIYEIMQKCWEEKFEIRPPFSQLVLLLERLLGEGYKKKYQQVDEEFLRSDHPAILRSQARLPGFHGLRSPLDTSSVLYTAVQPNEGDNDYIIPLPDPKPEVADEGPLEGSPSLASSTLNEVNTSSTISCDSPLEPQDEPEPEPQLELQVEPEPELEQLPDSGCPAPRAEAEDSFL", "test": "Off-chip mobility-shift kinase assay (Caliper LABCHIP), PDGFR"}, "[3]": {"biological_target": "ABL (Homo sapiens, UniProt P00519)", "sequence (P00519 whole entry)": "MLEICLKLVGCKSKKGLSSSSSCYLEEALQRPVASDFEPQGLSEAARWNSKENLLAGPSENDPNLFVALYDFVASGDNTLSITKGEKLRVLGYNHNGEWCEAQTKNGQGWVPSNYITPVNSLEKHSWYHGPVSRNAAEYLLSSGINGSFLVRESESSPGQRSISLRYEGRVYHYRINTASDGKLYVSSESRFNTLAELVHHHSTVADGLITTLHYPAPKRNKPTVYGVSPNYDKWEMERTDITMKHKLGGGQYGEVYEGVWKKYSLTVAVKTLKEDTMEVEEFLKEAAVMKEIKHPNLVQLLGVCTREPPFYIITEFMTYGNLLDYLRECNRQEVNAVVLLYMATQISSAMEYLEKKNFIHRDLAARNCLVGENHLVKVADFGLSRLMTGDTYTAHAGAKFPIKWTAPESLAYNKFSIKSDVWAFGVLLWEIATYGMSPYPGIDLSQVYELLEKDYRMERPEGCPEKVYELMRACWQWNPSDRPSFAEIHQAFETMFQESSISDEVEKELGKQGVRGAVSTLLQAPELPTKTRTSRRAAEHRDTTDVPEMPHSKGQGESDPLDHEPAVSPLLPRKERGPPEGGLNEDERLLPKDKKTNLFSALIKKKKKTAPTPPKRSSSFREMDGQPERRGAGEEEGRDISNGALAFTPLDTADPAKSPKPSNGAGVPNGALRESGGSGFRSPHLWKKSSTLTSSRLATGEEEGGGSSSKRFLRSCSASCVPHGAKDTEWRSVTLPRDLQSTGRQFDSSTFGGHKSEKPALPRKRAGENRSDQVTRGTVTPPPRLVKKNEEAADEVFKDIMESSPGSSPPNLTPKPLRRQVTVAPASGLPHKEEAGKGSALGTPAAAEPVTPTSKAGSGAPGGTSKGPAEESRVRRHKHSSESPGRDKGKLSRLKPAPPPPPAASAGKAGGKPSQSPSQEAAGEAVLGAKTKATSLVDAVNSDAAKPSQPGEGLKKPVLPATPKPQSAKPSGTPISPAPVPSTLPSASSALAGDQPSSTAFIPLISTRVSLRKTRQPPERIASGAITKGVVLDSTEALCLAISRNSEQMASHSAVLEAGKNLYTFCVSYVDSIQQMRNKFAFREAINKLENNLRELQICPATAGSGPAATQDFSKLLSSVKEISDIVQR", "test": "Off-chip mobility-shift kinase assay (Caliper LABCHIP), ABL"}, "[4]": {"biological_target": "cKIT (Homo sapiens, UniProt P10721)", "sequence (P10721 26-976)": "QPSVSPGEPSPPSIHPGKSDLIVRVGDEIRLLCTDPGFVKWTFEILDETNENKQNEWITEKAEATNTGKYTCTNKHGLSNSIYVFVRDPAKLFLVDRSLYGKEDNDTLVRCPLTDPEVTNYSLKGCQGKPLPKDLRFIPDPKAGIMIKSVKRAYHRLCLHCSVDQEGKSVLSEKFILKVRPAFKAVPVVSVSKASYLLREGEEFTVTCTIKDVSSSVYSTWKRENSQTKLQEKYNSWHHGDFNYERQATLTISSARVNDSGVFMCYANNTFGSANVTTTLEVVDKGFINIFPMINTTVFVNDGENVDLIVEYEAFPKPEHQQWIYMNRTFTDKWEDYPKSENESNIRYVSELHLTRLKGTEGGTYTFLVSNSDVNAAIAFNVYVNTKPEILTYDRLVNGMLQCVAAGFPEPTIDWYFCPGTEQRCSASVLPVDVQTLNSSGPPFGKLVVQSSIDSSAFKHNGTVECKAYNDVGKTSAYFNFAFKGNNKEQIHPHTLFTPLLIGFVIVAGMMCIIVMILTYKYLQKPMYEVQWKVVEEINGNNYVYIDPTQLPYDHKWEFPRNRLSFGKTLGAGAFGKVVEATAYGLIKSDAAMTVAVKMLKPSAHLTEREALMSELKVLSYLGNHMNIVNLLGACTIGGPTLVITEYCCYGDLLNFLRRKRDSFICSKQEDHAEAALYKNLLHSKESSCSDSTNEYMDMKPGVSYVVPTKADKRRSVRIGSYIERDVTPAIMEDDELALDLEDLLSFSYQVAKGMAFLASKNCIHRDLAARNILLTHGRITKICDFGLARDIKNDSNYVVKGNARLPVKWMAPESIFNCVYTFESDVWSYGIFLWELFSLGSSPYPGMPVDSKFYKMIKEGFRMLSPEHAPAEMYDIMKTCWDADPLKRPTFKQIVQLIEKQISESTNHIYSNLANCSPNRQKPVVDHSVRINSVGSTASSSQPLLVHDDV", "test": "Off-chip mobility-shift kinase assay (Caliper LABCHIP), C-kit"}, "[5]": {"test": "Thermodynamic solubility", "type": "physicochemical", "conditions": "aqueous buffer, thermodynamic from solid; phosphate buffered saline, pH 7.4; ambient temperature overnight", "procedure": "Test compound (2.5 mg of solid; n=1) is weighed in a clear glass vial and buffer (0.5 mL) is added (phosphate buffered saline, pH 7.4). The solution is agitated at ambient temperature overnight using a vial roller system. […] Duplicate aliquots (50 μL) are sampled from the filtrate and diluted with one volume of 0.1 N hydrochloric acid and methanol (1:1 v/v) before analysis by HPLC-UV. […] The concentration of test compound in the filtrate is quantified relative to the concentration standard.\nAnalysis is performed using a gradient HPLC-UV system with a total cycle time of six minutes."}}, "data": [{"smiles": "COCCOCCOCCOCCOCCOCCOCCOCCOCCN1CCN(Cc2ccc(C(=O)Nc3ccc(C)c(Nc4nccc(-c5cccnc5)n4)c3)cc2)CC1", "note": "[mPEG9-N′-Imatinib]", "values": [{"measurement": "Papp A→B at 120 min, 10 μM", "setting": "[1]; Caco-2, pH 7.4, read-out: Permeability (cm^2/s × 10^6)", "value": "0.05 ± 0.02", "unit": "×10⁻⁶ cm/s"}, {"measurement": "efflux ratio at 120 min, 10 μM", "setting": "[1]; Caco-2, ratio of B-A and A-B permeabilities, 10 μM, 120 minutes", "value": 359}, {"measurement": "IC50", "setting": "[2]", "value": 340, "unit": "nM"}, {"measurement": "PDGFR AVG % Activity at 1.0E−06", "setting": "[2]; concentration 1.0E−06", "value": 13, "unit": "%"}, {"measurement": "PDGFR AVG % Activity at 1.0E−07", "setting": "[2]; concentration 1.0E−07", "value": 74, "unit": "%"}, {"measurement": "PDGFR AVG % Activity at 1.0E−08", "setting": "[2]; concentration 1.0E−08", "value": 95, "unit": "%"}, {"measurement": "PDGFR AVG % Activity at 1.0E−09", "setting": "[2]; concentration 1.0E−09", "value": 99, "unit": "%"}, {"measurement": "PDGFR AVG % Activity at 1.0E−10", "setting": "[2]; concentration 1.0E−10", "value": 92, "unit": "%"}, {"measurement": "PDGFR AVG % Activity at 3.0E−06", "setting": "[2]; concentration 3.0E−06", "value": 0, "unit": "%"}, {"measurement": "PDGFR AVG % Activity at 3.0E−07", "setting": "[2]; concentration 3.0E−07", "value": 48, "unit": "%"}, {"measurement": "PDGFR AVG % Activity at 3.0E−08", "setting": "[2]; concentration 3.0E−08", "value": 86, "unit": "%"}, {"measurement": "PDGFR AVG % Activity at 3.0E−09", "setting": "[2]; concentration 3.0E−09", "value": 100, "unit": "%"}, {"measurement": "PDGFR AVG % Activity at 3.0E−10", "setting": "[2]; concentration 3.0E−10", "value": 95, "unit": "%"}, {"measurement": "IC50", "setting": "[3]", "value": 3800, "unit": "nM"}, {"measurement": "ABL AVG % Activity at 1.0E−06", "setting": "[3]; concentration 1.0E−06, imatinib-corresponding compounds", "value": 69, "unit": "%"}, {"measurement": "ABL AVG % Activity at 1.0E−07", "setting": "[3]; concentration 1.0E−07, imatinib-corresponding compounds", "value": 84, "unit": "%"}, {"measurement": "ABL AVG % Activity at 1.0E−08", "setting": "[3]; concentration 1.0E−08, imatinib-corresponding compounds", "value": 93, "unit": "%"}, {"measurement": "ABL AVG % Activity at 1.0E−09", "setting": "[3]; concentration 1.0E−09, imatinib-corresponding compounds", "value": 97, "unit": "%"}, {"measurement": "ABL AVG % Activity at 1.0E−10", "setting": "[3]; concentration 1.0E−10, imatinib-corresponding compounds", "value": 97, "unit": "%"}, {"measurement": "ABL AVG % Activity at 3.0E−06", "setting": "[3]; concentration 3.0E−06, imatinib-corresponding compounds", "value": 49, "unit": "%"}, {"measurement": "ABL AVG % Activity at 3.0E−07", "setting": "[3]; concentration 3.0E−07, imatinib-corresponding compounds", "value": 79, "unit": "%"}, {"measurement": "ABL AVG % Activity at 3.0E−08", "setting": "[3]; concentration 3.0E−08, imatinib-corresponding compounds", "value": 89, "unit": "%"}, {"measurement": "ABL AVG % Activity at 3.0E−09", "setting": "[3]; concentration 3.0E−09, imatinib-corresponding compounds", "value": 96, "unit": "%"}, {"measurement": "ABL AVG % Activity at 3.0E−10", "setting": "[3]; concentration 3.0E−10, imatinib-corresponding compounds", "value": 97, "unit": "%"}, {"measurement": "IC50", "setting": "[4]", "value": 550, "unit": "nM"}, {"measurement": "C-kit AVG % Activity at 1.0E−05", "setting": "[4]; concentration 1.0E−05", "value": 2, "unit": "%"}, {"measurement": "C-kit AVG % Activity at 1.0E−06", "setting": "[4]; concentration 1.0E−06", "value": 35, "unit": "%"}, {"measurement": "C-kit AVG % Activity at 1.0E−07", "setting": "[4]; concentration 1.0E−07", "value": 82, "unit": "%"}, {"measurement": "C-kit AVG % Activity at 1.0E−08", "setting": "[4]; concentration 1.0E−08", "value": 91, "unit": "%"}, {"measurement": "C-kit AVG % Activity at 3.0E−05", "setting": "[4]; concentration 3.0E−05", "value": 0, "unit": "%"}, {"measurement": "C-kit AVG % Activity at 3.0E−06", "setting": "[4]; concentration 3.0E−06", "value": 12, "unit": "%"}, {"measurement": "C-kit AVG % Activity at 3.0E−07", "setting": "[4]; concentration 3.0E−07", "value": 64, "unit": "%"}, {"measurement": "C-kit AVG % Activity at 3.0E−08", "setting": "[4]; concentration 3.0E−08", "value": 92, "unit": "%"}, {"measurement": "C-kit AVG % Activity at 3.0E−09", "setting": "[4]; concentration 3.0E−09", "value": 95, "unit": "%"}, {"measurement": "solubility", "setting": "[5]", "value": 2500, "unit": "µg/mL"}]}]}
